One assay concerns Human venous whole blood. The experiment in a line: Human Whole Blood IFN-γ Assay. It counts as cell-based. The procedure:
Human venous whole blood (22.5 μL per well), obtained from healthy donors, was pre-treated with compounds for one hour at 37° C. in a humidified 95% air/5% CO2 incubator. The blood was stimulated with 2.5 μL anti-human CD3 and anti-CD28 mAb at a final concentration of 1 μg/mL each for 24 hours at 37° C. IFN-γ in the supernatants was measured using AlphaLISA kit (Cat #AL217).

The subject of assay [1] is naïve human CD8 T cells. Put plainly: cells. As to conditions: 3 μM Example 40 co-stimulation as 100% activation. Summed up:
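Thawed frozen cells, 40,000/well, stimulated on plate-bound anti-CD3 (coated at 0.05 μg/mL) plus soluble anti-CD28 0.1 μg/mL; compounds added immediately after plating. After 20 h at 37° C., supernatant IFN-γ quantitated by AlphaLISA, counts converted to IFN-γ concentration […].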

In assay [2] the test system is pre-activated CD4 T cells and Raji cells. The experiment in a line: Raji CD4 T Cell IL2 Assay. In kind it is cell-based.
The next assay has as its target human DGKα (Homo sapiens (Human), UniProt P23743). Put plainly: biochemical. As to conditions: detergent/lipid micelle substrate; read-out: DGKα IC50. Summed up:
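Full-length human DGKα or DGKζ (C-terminal His tag, Sf9-expressed; 20 nM 4× stock) was preincubated 10 min at room temperature with PS/DAG octyl glucoside micelles in MOPS pH 7.5 buffer with MgCl2, CaCl2 and DTT. It was then started with ATP (300 uM addition) and run for 1 hr, with ADP-Glo luminescence read-out.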

In assay [3] the test system is naïve human CD8 T cells. The experiment in a line: CellTiter-Glo CD8 T Cell Proliferation Assay. In kind it is cell-based. As to conditions: Homo sapiens, T-cell, CellTiter-Glo CD8 T cell proliferation, normalized; read-out: CD8 GLO normalized EC50. Background: Cellular ATP, detected with luciferase, serves as a proxy for viable cell number.
[4] abbreviates: Homo sapiens, human whole blood, anti-CD3 plus anti-CD28 as baseline, 3 μM Example 40 co-stimulation as 100% activation, read-out: INF-γ Whole Blood Normalized Agonist EC50.
The mark [5] stands for this setting: Homo sapiens, T-cell, read-out: HuCD8 INFG Normalized EC50, anti-CD3 plus anti-CD28 as baseline.
Setting [6] is: Homo sapiens, read-out: INF-γ Whole Blood Agonist EC50.
Setting [7] is: human whole blood, anti-CD3 plus anti-CD28 as baseline, 3 μM Example 40 co-stimulation as 100% activation, read-out: INF-γ Whole Blood Normalized Agonist EC50.
Setting [8] is: read-out: HuCD8 INFG Normalized EC50, anti-CD3 plus anti-CD28 as baseline.

These results are taken from patent publication US11866430B2, “Naphthyridinone compounds useful as T cell activators” (priority 2018, dated 2024).

Like-named read-outs stand apart in the source and are kept apart here. Some results are limits rather than exact numbers.

human DGKα, sequence (P23743 other isoform, or with tags, fused parts or gaps): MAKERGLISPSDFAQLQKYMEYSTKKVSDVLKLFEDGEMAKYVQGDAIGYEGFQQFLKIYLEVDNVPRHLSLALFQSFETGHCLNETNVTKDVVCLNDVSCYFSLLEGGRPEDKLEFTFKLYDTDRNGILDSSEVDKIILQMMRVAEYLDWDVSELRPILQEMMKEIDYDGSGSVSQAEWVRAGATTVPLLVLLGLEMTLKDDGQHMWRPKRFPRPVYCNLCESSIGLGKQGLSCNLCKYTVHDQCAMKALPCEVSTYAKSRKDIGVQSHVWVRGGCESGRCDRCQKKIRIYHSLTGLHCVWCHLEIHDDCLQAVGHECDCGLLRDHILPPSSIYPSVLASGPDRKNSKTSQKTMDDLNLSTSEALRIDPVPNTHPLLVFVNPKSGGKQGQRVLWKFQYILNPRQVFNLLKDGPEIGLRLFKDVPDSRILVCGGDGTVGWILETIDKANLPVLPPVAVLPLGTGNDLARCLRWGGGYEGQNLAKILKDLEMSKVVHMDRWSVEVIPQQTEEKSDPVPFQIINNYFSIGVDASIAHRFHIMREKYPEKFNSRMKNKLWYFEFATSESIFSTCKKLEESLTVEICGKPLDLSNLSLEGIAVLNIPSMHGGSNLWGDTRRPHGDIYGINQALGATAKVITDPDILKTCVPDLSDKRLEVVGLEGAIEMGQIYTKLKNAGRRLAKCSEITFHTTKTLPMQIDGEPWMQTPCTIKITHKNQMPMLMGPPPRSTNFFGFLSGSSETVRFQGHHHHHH

For orientation: EC50 means the concentration that produces a half-maximal response. For orientation: IC50 means the midpoint of a concentration-inhibition curve. For `COc1ccccc1C(c1ccc(F)cc1)N1CCN(c2c(C#N)c(=O)n(C)c3ccc(Br)nc23)CC1` (single isomer, unassigned) [Example 13, 6-bromo-4-{4-[(4-fluorophenyl)(2-methoxyphenyl)methyl]piperazin-1-yl}-1-methyl-2-oxo-1,2-dihydro-1,5-naphthyridine-3-carbonitrile], the EC50 in the assay on Human venous whole blood (setting [4]) came out at 5 µM; in the assay with naïve human CD8 T cells [1] (setting [5]), 10 µM. Also, the IC50 in assay [2] is over 100 µM; at human DGKα it was 9.5 µM.
`Cc1ccc(CN2CCN(c3c(C#N)c(=O)n(C)c4ccc(Cl)nc34)CC2)c(F)c1` [Example 423, 6-chloro-4-{4-[(2-fluoro-4-methylphenyl)methyl]piperazin-1-yl}-1-methyl-2-oxo-1,2-dihydro-1,5-naphthyridine-3-carbonitrile]: the results for the EC50 with Human venous whole blood (setting [4]) and in the assay on naïve human CD8 T cells [1] (setting [5]) were 10 µM and 0.46 µM, respectively. The IC50 was over 100 µM in assay [2] (Homo sapiens, Raji) and 1.4 µM at human DGKα.
Consider `Cc1ccc(CN2CCN(c3c(C#N)c(=O)n(C)c4ccc(Cl)nc34)CC2)cc1` [Example 386, 6-chloro-1-methyl-4-{4-[(4-methylphenyl)methyl]piperazin-1-yl}-2-oxo-1,2-dihydro-1,5-naphthyridine-3-carbonitrile], for which the concentration giving a half-maximal response (EC50) in the assay with Human venous whole blood (setting [4]) amounted to 1.24 µM; in the assay on naïve human CD8 T cells [1] (setting [5]), 0.96 µM. The IC50 at human DGKα was 0.15 µM.
On to `COc1cc(F)ccc1C(c1ccc(F)cc1)N1CCN(c2c(C#N)c(=O)n(C)c3ccc(Br)nc23)CC1` (single isomer, unassigned) [Example 17, 6-bromo-4-{4-[(4-fluoro-2-methoxyphenyl)(4-fluorophenyl)methyl]piperazin-1-yl}-1-methyl-2-oxo-1,2-dihydro-1,5-naphthyridine-3-carbonitrile], for which the EC50 is 1.15 µM in the assay on Human venous whole blood (setting [4]), 0.67 µM with Human venous whole blood (setting [6]) and 0.52 µM with naïve human CD8 T cells [1] (setting [5]). Also, the half-maximal inhibitory concentration (IC50) at human DGKα worked out at 0.93 µM.
For the compound `COc1ccc2c(n1)c(N1CCN(C(c3ccc(F)cc3)c3ccc(F)cc3OC)CC1)c(C#N)c(=O)n2C` (racemic) [Example 412, 4-{4-[(4-fluoro-2-methoxyphenyl)(4-fluorophenyl)methyl]piperazin-1-yl}-6-methoxy-1-methyl-2-oxo-1,2-dihydro-1,5-naphthyridine-3-carbonitrile], the 50% effective concentration (EC50) in the assay with Human venous whole blood (setting [4]) stood at 3.01 µM; in the assay on naïve human CD8 T cells [3], 0.3 µM.
For `COc1cc(F)ccc1C(c1ccc(F)cc1)N1CCN(c2c(C#N)c(=O)n(C)c3ccc(C#N)nc23)CC1` (single isomer, unassigned) [Example 406, 8-{4-[(4-fluoro-2-methoxyphenyl)(4-fluorophenyl)methyl]piperazin-1-yl}-5-methy-6-oxo-5,6-dihydro-L5-naphthyridine-2,7-dicarbonitrile], the values for the EC50 in the assay on Human venous whole blood (setting [7]) and with naïve human CD8 T cells [1] (setting [8]) were 2.19 µM and 0.41 µM, respectively.
On to `C#CCn1c(=O)c([N+](=O)[O-])c(N2CCN(C(C)c3ccc(F)cc3)CC2)c2nc(C#N)ccc21` (single isomer, unassigned) [Example 137, 8-(4-(1-(4-fluorophenyl)ethyl)piperazin-1-yl)-7-nitro-6-oxo-5-(prop-2-yn-1-yl)-5,6-dihydro-1,5-naphthyridine-2-carbonitrile], for which the 50% effective concentration (EC50) in the assay with Human venous whole blood (setting [7]) stood at 5 µM; in the assay with naïve human CD8 T cells [1] (setting [5]) it was 0.04 µM. Moreover, the 50% inhibitory concentration (IC50) at human DGKα is 0.28 µM.
Take `CC(c1ccc(F)cc1)N1CCN(c2c([N+](=O)[O-])c(=O)n(C)c3ccc(C#N)nc23)CC1` (single isomer, unassigned) [Example 44, 8-(4-(1-(4-fluorophenyl)ethyl)piperazin-1-yl)-5-methyl-7-nitro-6-oxo-5,6-dihydro-1,5-naphthyridine-2-carbonitrile]: the results for the EC50 in the assay on Human venous whole blood (setting [4]) and with naïve human CD8 T cells [1] (setting [5]) were 0.9 µM and 0.18 µM, respectively. Further, the IC50 on human DGKα came to 0.23 µM.
In the case of `COc1cc(F)ccc1C(c1ccc(F)cc1)N1CCN(c2c([N+](=O)[O-])c(=O)n(C)c3ccc(C#N)nc23)CC1` (single isomer, unassigned) [Example 124, 8-(4-((4-fluoro-2-methoxyphenyl)(4-fluorophenyl)methyl)piperazin-1-yl)-5-methyl-7-nitro-6-oxo-5,6-dihydro-1,5-naphthyridine-2-carbonitrile], the 50% effective concentration (EC50) with Human venous whole blood (setting [4]) stood at 0.1 µM; in the assay on Human venous whole blood (setting [6]), 0.14 µM; in the assay on naïve human CD8 T cells [1] (setting [5]), 0.01 µM; in the assay on naïve human CD8 T cells [3] it was 0.02 µM. Further, at human DGKα, the half-maximal inhibitory concentration (IC50) was determined as 0.75 µM.
Regarding `Cn1c(=O)c(C#N)c(N2CCN(C(C)(C)c3ccc(F)cc3)CC2)c2nc(Cl)ccc21` [Example 425, 6-chloro-4-{4-[2-(4-fluorophenyl)propan-2-yl]piperazin-1-yl}-1-methyl-2-oxo-1,2-dihydro-1,5-naphthyridine-3-carbonitrile], the values for the half-maximal effective concentration (EC50) in the assay on Human venous whole blood (setting [4]) and with naïve human CD8 T cells [3] were 10 µM and 0.19 µM, respectively. The IC50 is over 100 µM in assay [2] (Homo sapiens, Raji) and 1.8 µM at human DGKα.
Turning to `COc1cc(F)ccc1C(c1ccc(F)cc1)N1CCN(c2c(C#N)c(=O)n(C)c3ccc(C#N)nc23)CC1` (single isomer, unassigned) [Example 407, 8-{4-[(4-fluoro-2-methoxyphenyl)(4-fluorophenyl)methyl]piperazin-1-yl}-5-methy-6-oxo-5,6-dihydro-L5-naphthyridine-2,7-dicarbonitrile], the EC50 came to 0.78 µM with Human venous whole blood (setting [7]) and 0.12 µM in the assay on naïve human CD8 T cells [1] (setting [8]).
